Tests used:
barnyardgrass = assay: Test C postemergence barnyardgrass; assay type: in vivo, Echinochloa crus-galli; settings: 0 to 100 scale, 0 no effect, 100 complete control
Outline: (§1)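 Scores (0 = no effect, 100 = complete control) come from visual comparison with untreated controls after about 14–21 days. Spray formulation was a non-phytotoxic solvent mixture including surfactant; plants grew in a 60:40 sandy loam–potting mix blend.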

arrowleaf sida = assay: Test C postemergence arrowleaf sida; assay type: in vivo, Sida rhombifolia; settings: 0 to 100 scale, 0 no effect, 100 complete control
Outline: as §1

common ragweed = assay: Test C postemergence common ragweed; assay type: in vivo, Ambrosia elatior; settings: 0 to 100 scale, 0 no effect, 100 complete control
Outline: as §1

large crabgrass = assay: Test C postemergence large crabgrass; assay type: in vivo, Digitaria sanguinalis; settings: 0 to 100 scale, 0 no effect, 100 complete control
Outline: as §1

velvetleaf = assay: Test C postemergence velvetleaf; assay type: in vivo, Abutilon theophrasti; settings: 0 to 100 scale, 0 no effect, 100 complete control
Outline: as §1

soybean = assay: Test C postemergence soybean; assay type: in vivo, Glycine max; settings: 0 to 100 scale, 0 no effect, 100 complete control
Outline: as §1

sourgrass = assay: Test D sourgrass; assay type: in vivo, Trichachne insularis; settings: Preemergence, 0 to 100 scale
Outline: (§2)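 Weed seeds planted in sandy loam; species kept apart in individual pots or compartments. Preemergence tests: treatment to soil surface within one day. Greenhouse growth, then visual injury scoring at 14–21 days (0–100).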

eastern black nightshade = assay: Test C postemergence eastern black nightshade; assay type: in vivo, Solanum ptycanthum; settings: 0 to 100 scale, 0 no effect, 100 complete control
Outline: as §1

Green foxtail = assay: Test D green foxtail; assay type: in vivo; settings: Preemergence, 0 to 100 scale
Outline: as §2

cotton = assay: Test C postemergence cotton; assay type: in vivo, Gossypium hirsutum; settings: 0 to 100 scale, 0 no effect, 100 complete control
Outline: as §1

ladysthumb smartweed = assay: Test C postemergence ladysthumb smartweed; assay type: in vivo, Polygonum persicaria; settings: 0 to 100 scale, 0 no effect, 100 complete control
Outline: as §1

field bindweed = assay: Test C postemergence field bindweed; assay type: in vivo, Convolvulus arvensis; settings: 0 to 100 scale, 0 no effect, 100 complete control
Outline: as §1

wild poinsettia = assay: Test C postemergence wild poinsettia; assay type: in vivo, Euphorbia heterophylla; settings: 0 to 100 scale, 0 no effect, 100 complete control
Outline: as §1

corn = assay: Test C postemergence corn; assay type: in vivo, Zea mays; settings: 0 to 100 scale, 0 no effect, 100 complete control
Outline: as §1

purple nutsedge = assay: Test C postemergence purple nutsedge; assay type: in vivo, Cyperus rotundus; settings: 0 to 100 scale, 0 no effect, 100 complete control
Outline: as §1

C=CCn1c(=O)on(C(=O)N(c2ccc(F)cc2)C(C)C)c1=O [Compound 146]
Plant response rating, Barnyardgrass (barnyardgrass; Rate 140 g/ha): 60 | Plant response rating, Barnyardgrass (barnyardgrass; Rate 280 g/ha): 80 | Plant response rating, Barnyardgrass (barnyardgrass; Rate 560 g/ha): 85 | Plant response rating, Barnyardgrass (barnyardgrass; Rate 1120 g/ha): 95 | Plant response rating Arrowleaf sida (arrowleaf sida; Rate 140 g/ha): 40 | Plant response rating Arrowleaf sida (arrowleaf sida; Rate 280 g/ha): 45 | Plant response rating Arrowleaf sida (arrowleaf sida; Rate 560 g/ha): 85 | Plant response rating Arrowleaf sida (arrowleaf sida; Rate 1120 g/ha): 90 | Plant response rating Common ragweed (common ragweed; Rate 140 g/ha): 10 | Plant response rating Common ragweed (common ragweed; Rate 560 g/ha): 30 | Plant response rating Common ragweed (common ragweed; Rate 1120 g/ha): 30 | Plant response rating Large crabgrass (large crabgrass; Rate 140 g/ha): 0 | Plant response rating Large crabgrass (large crabgrass; Rate 280 g/ha): 60 | Plant response rating Large crabgrass (large crabgrass; Rate 560 g/ha): 60 | Plant response rating Large crabgrass (large crabgrass; Rate 1120 g/ha): 80 | Plant response rating, Velvetleaf (velvetleaf; Rate 140 g/ha): 0 | Plant response rating, Velvetleaf (velvetleaf; Rate 280 g/ha): 40 | Plant response rating, Velvetleaf (velvetleaf; Rate 560 g/ha): 40 | Plant response rating, Velvetleaf (velvetleaf; Rate 1120 g/ha): 60 | Plant response rating, Soybean (soybean; Rate 140 g/ha): 40 | Plant response rating, Soybean (soybean; Rate 280 g/ha): 50 | Plant response rating, Soybean (soybean; Rate 560 g/ha): 60 | Plant response rating, Soybean (soybean; Rate 1120 g/ha): 85 | Plant response rating, Sourgrass (sourgrass; Rate 16 g/ha, 0 no injury, 100 complete control): 0 | Plant response rating, Sourgrass (sourgrass; Rate 32 g/ha, 0 no injury, 100 complete control): 98 | Sourgrass plant response rating (sourgrass; Rate 64 g/ha, 0 no injury, 100 complete control): 100 | Sourgrass plant response rating (sourgrass; Rate 125 g/ha, 0 no injury, 100 complete control): 100 | Plant response rating, Sourgrass (sourgrass; Rate 250 g/ha): 100 | Plant response rating, Sourgrass (sourgrass; Rate 500 g/ha): 100 | Plant response rating E. blacknightsh (eastern black nightshade; Rate 140 g/ha): 0 | Plant response rating E. blacknightsh (eastern black nightshade; Rate 280 g/ha): 30 | Plant response rating E. blacknightsh (eastern black nightshade; Rate 560 g/ha): 85 | Plant response rating E. blacknightsh (eastern black nightshade; Rate 1120 g/ha): 85 | Plant response rating, Green foxtail (Green foxtail; Rate 250 g/ha): 100 | Plant response rating, Green foxtail (Green foxtail; Rate 500 g/ha): 100 | Plant response rating Cotton (cotton; Rate 140 g/ha): 40 | Plant response rating Cotton (cotton; Rate 280 g/ha): 65 | Plant response rating Cotton (cotton; Rate 560 g/ha): 65 | Plant response rating Cotton (cotton; Rate 1120 g/ha): 70 | Plant response rating Ladysthumb (ladysthumb smartweed; Rate 140 g/ha): 0 | Plant response rating Ladysthumb (ladysthumb smartweed; Rate 280 g/ha): 10 | Plant response rating Ladysthumb (ladysthumb smartweed; Rate 560 g/ha): 85 | Plant response rating Field bindweed (field bindweed; Rate 140 g/ha): 0 | Plant response rating Field bindweed (field bindweed; Rate 280 g/ha): 0 | Plant response rating Field bindweed (field bindweed; Rate 560 g/ha): 0 | Plant response rating Field bindweed (field bindweed; Rate 1120 g/ha): 0 | Plant response rating Wild poinsettia (wild poinsettia; Rate 140 g/ha): 0 | Plant response rating Wild poinsettia (wild poinsettia; Rate 280 g/ha): 40 | Plant response rating Wild poinsettia (wild poinsettia; Rate 560 g/ha): 50 | Plant response rating Wild poinsettia (wild poinsettia; Rate 1120 g/ha): 70 | Plant response rating, Corn (corn; Rate 140 g/ha): 0 | Plant response rating, Corn (corn; Rate 280 g/ha): 0 | Plant response rating, Corn (corn; Rate 560 g/ha): 5 | Plant response rating, Corn (corn; Rate 1120 g/ha): 50 | Plant response rating, Purple nutsedge (purple nutsedge; Rate 140 g/ha): 0 | Plant response rating, Purple nutsedge (purple nutsedge; Rate 280 g/ha): 0 | Plant response rating, Purple nutsedge (purple nutsedge; Rate 560 g/ha): 0 | Plant response rating, Purple nutsedge (purple nutsedge; Rate 1120 g/ha): 0

Source: US6737383B1, “Herbicidal oxadiazolidines” (priority 1999, dated 2004)
